# “Also recorded” adds a separate entry of the source.
# Experiments:
# fetal lung explants = assay: Fetal murine lung explant culture (hanging drop), stereomicroscopy and H/E histology of differentiation; assay type: cell-based, mouse
# Description: To provide proof of evidence, an in vitro explant lung culture (obtained from a mouse) is used. Generation of new alveolar tissue in patients is stimulated by activation or re-activation of alveolar bud formation. Growth and branching of alveolar buds, followed by transformation into alveolar ducts, sacs and pouches, results in the establishment of pulmonary acini.
# As a proof of evidence, it is, therefore, shown that treatment with selected molecules involved in a Wnt pathway inhibits the differentiation process of alveolar differentiation. Inhibition of this differentiation process is achieved by applying a purified Wnt3a polypeptide to an in vitro lung explant culture of 13-day-old (E13) mouse embryos.
# The (fetal) murine lung explant culture was generated according to our standard protocol. Briefly, complete lungs or individually dissected lung lobes were isolated from fetal mice and cultured for one to five days in a hanging drop culture system. The Wnt3a polypeptide was administered to the culture medium in different concentrations, ranging from 0 to 4000 ng/ml. The effect of this treatment was monitored by stereomicroscopy. The lung explant cultures were subsequently fixed for 30 minutes in 10% paraformaldehyde (PFA), 30 minutes in 2% PFA and 30 minutes in 4% PFA. After fixation, the lung explants were dehydrated through an increasing series of 2-isopropanol and subsequently embedded in paraffin. For the histological analysis, 4 μm thick sections were cut and stained with Hematoxilin and Eosin using standard techniques.
# As a source for Wnt3a, recombinant mouse Wnt3a from R&D Systems (catalog nr. 1324-WN, R&D Systems, Inc. Minneapolis USA) was used. As culture medium, DMEM/HAM's F12 (1:1) from Biochrom AG, catalog nr. FG 4815, was used.
# [1] = test system: mesenchyme and epithelium of fetal lung explants; assay: TUNEL assay on sections of fetal lung explants; assay type: cell-based, mouse
# Experimental: The induction of apoptosis was detected using the “In Situ Cell Death Detection Kit,” of Roche (Cat. No. 11 684 817 001) according to the manufacturer's instructions.
# (§1) To further analyze the effect of Wnt3a upon apoptosis and proliferation, lung explants were cultured for four days in the presence of 0, 4, 20, 100, 250, 500, 750 and 1000 ng/ml. In order to identify whether after Wnt3A treatment cells are viable and active, proliferating BrdU was added to the culture medium, which is incorporated in newly synthesized DNA of active proliferating cells, two hours before the fixation of the lung explants. […] To better investigate this effect, histological sections were analyzed with the TUNEL assay, which detects fragmented DNA present in apoptotic cells (material and methods).
# [2] = test system: mesenchyme and epithelium of fetal lung explants; assay: PCNA immunohistochemistry (proliferation) on lung explants; assay type: cell-based, mouse
# Experimental: Detection of the PCNA epitopes was carried out by treating the sections with di-aminobenzidine (DAB) for 15 minutes.
# The antibody against PCNA was purchased from Zymed Laboratories Inc. (cat nr. 18-0110). The secondary conjugate used was from Jackson Laboratories, Inc. (catalog nr. 115-056-062).
# [3] = test system: mesenchyme and epithelium of fetal lung explants; assay: BrdU incorporation immunostaining on lung explants; assay type: cell-based, mouse; details: four days
# Experimental: The primary antibodies used for the immunohistochemical detection was for beta-catenin; anti beta-catenin IgG, mAb, clone 14 from BD-Transduction Laboratories, for tubulin-beta mAb clone TBN05 (Tub2.1) from Neomarkers, for BrdU; anti-Bromodeoxyuridine (BrdU), mAb clone ZBU30 from Zymed Laboratories Inc.
# as §1
# In order to identify whether the epithelial cells were still actively proliferating after four days of Wnt3a treatment, the histological sections were immunostained for incorporated BrdU (FIG. 6).
# [4] = test system: Wnt-signaling pathway in primary lung fibroblasts isolated from a E12.5 fetal lung; assay: TopFlash/FopFlash reporter assay, primary fetal lung cells; assay type: cell-based, mouse; details: 0.4 to 500 ng/ml, 20 hours
# Experimental: (§2) Primary mouse fibroblasts isolated from E12.5 lung explants, the human epithelial lung carcinoma cell line A549 cells (ATCC CCL-185), the human epithelial lung adenocarcinoma cell line Calu-3 (ATCC_HTB-55) and the normal human fetal lung fibroblast cell line HFL-1 cells (ATCC—153) were cultured in 96-well plates and transfected with the TopFlash and FopFlash reporter constructs using lipofectamine 2000 according to the manufacturer's instructions. As an internal control for transfection efficiency, a constitutive renilla luciferase reporter (Promega) was cotransfected. The cells were transfected with the above-mentioned reporter constructs and simultaneously treated with different concentrations of Wnt3A for 20 hours, after which the cells were lysed and luciferase expression was measured using a Berthold luminometer for two seconds (V. Korinek et al., Mol. Cell. Biol. 18:1248-1256, 1998). The Lipofectamine 2000 transfection reagent was purchased from Invitrogen Life Technologies. The wild-type beta-catenin/TCF reporter plasmid (TOPFLASH) and mutated reporter plasmid (FOPFLASH) were obtained from Upstate Biotechnology (NY, USA).
# The dissociated lungs were co-transfected with the TopFlash reporter construct that is activated by nuclear beta-catenin transcription complexes. […]
# [5] = test system: Wnt-signaling pathway in normal human fetal lung fibroblast cell line HFL-1; assay: TopFlash/FopFlash reporter assay, HFL-1; assay type: cell-based; details: HFL-1, 20 hours
# Experimental: as §2, with “The Lipofectamine 2000 transfection reagent was purchased from Invitrogen Life Technologies. The wild-type beta-catenin/TCF reporter plasmid (TOPFLASH) and mutated reporter plasmid (FOPFLASH) were obtained from Upstate Biotechnology (NY, USA).” left out
# In order to analyze if Wnt3A is able to activate the Wnt signal-transduction pathway in humans, we stimulated three different cell lines from human origin with Wnt3A and measured the response with the TopFlash/FopFlash reporter assay. The three human lung-derived cell lines analyzed were the lung epithelial carcinoma cell line A549 (FIG. 9B), the normal lung fibroblast line HFL-1 (FIG. 9C), and the epithelial adenocarcinoma cell line calu-3 (FIG. 9D).
substance,measurement,setting,value
Wnt3a,differentiation of the epithelium,"fetal lung explants; 500 ng/ml, four days",delayed; also recorded: undifferentiated character of the epithelium
same,differentiation of the primordial lung epithelium (histology),"fetal lung explants; 1000 ng/ml, five-day-old cultures",arrested at a stage comparable to that of the start of the culture (E13); also recorded: strong inhibitory effect on the development and differentiation of the fetal lung; also recorded: arrest of alveolar differentiation
same,effect on cell viability,fetal lung explants; 2000 ng/ml,affects the viability of all cells
same,effect on lung development (stereomicroscopy),"fetal lung explants; 2000 ng/ml and 4000 ng/ml, after one day",deleterious effect on lung development
same,complete block of differentiation of fetal lung development,"fetal lung explants; 4, 20, 100 and 500 ng/ml, four days",None of these concentrations was effective in completely blocking the differentiation
same,lung differentiation (stereomicroscopy),"fetal lung explants; E13 lung explants, 1000 ng/ml, after 16 hours",total block of lung differentiation
same,differentiation and alveolar development (stereomicroscopy),"fetal lung explants; E13 lung explants, 1000 ng/ml, five days culture",no significant differentiation and alveolar development could be observed
same,effects at the level of apoptosis and differentiation compared to control,"fetal lung explants; between 4 and 20 ng/ml, four days",no clear effects were visible
same,concentration at which differentiation was strongly retarded with many picnotic cells,fetal lung explants; histological examination at day 4,above 100 ng/ml
same,concentration that does not show clear morphological changes,fetal lung explants; lung explants,below 1 ng/ml
same,TUNEL-positive epithelial cells,"[1]; 1000 ng/ml, four days",almost none of the epithelial cells were TUNEL positive
same,apoptosis in the mesenchyme (TUNEL),"[1]; 1000 ng/ml, four days",massive induction of apoptosis in the mesenchyme
same,mesenchymal cells picnotic and TUNEL positive,"[1]; 1000 ng/ml, four days",~100%
same,TUNEL-positive epithelial cells,"[1]; 1000 ng/ml, four days, listed as Wnt3A",unaffected epithelium
same,concentration at which TUNEL-positive (apoptotic) cells increase,[1]; four days of culture,above 100 ng/ml
same,PCNA staining in the bronchial epithelium,"[2]; 500 ng/ml, two days",marked overall increase in the intensity and frequency of PCNA staining; also recorded: elevated PCNA staining
same,PCNA staining (proliferation) of epithelium and mesenchyme,"[2]; 1000 ng/ml, five days",the epithelium was still proliferating whereas most of the mesenchymal cells were inactive or dead; also recorded: strong reduction in proliferation of the mesenchyme versus the epithelium
same,PCNA staining,"[2]; 1000 ng/ml, two days",reduces the PCNA staining below the control situation
same,PCNA staining,"[2]; 2000 and 4000 ng/ml, two days",completely negative
same,concentration at which proliferation is absent / inhibited,[2]; lung explants,above 2000 ng/ml
same,BrdU-positive (active proliferating) cells,[3]; 500 ng/ml and lower,both the mesenchyme and epithelium contained many BrdU-positive
same,BrdU-positive (active proliferating) cells,[3]; 750 ng/ml,intermediate effect
same,BrdU-positive (active proliferating) cells,[3]; 1000 ng/ml,almost all BrdU-positive cells were present in the epithelium
same,TopFlash versus FopFlash reporter response,[4],clear Wnt3A dosage-dependent response
same,TopFlash/FopFlash reporter response,[5],respond to Wnt3A in a dosage-dependent manner; also recorded: strong induction of the Wnt-signaling pathway
